Reference: patent US10239903B2, “Pt (IV) derivatives and nanocarriers comprising them” (Yissum Research Development Company of the Hebrew …, priority 2014, dated 2019)

Columns and labels:
[1] = system: A375 cell line; assay: MTT cytotoxicity assay; type: cell-based; conditions: 120 h treatment
Description: (§4) To evaluate the efficacy of the various drugs, cells were seeded in a sterile, 24-well plate and incubated in the presence of the drug for 72 h/120 h at 37° C., 5% CO2. The number of cells alive was quantified using (3-(4,5-dimethylthiazol-2-yl)-2,5 diphenyltetrazolium bromide) (MTT) assay. The cells were incubated for 2 h with MTT, DMSO was added to dissolve the crystals and the plates were measured at 540 nm. Viability (%) graphs were constructed relative to the control of every assay. The data were plotted in a graph, lines connected the points, and the values were determined from the interpolated graph.

[2] = system: A498 cell line; assay: MTT cytotoxicity assay; type: cell-based; conditions: 120 h treatment
Description: as §4

[3] = system: A2780-cisR cell line; assay: MTT cytotoxicity assay; type: cell-based; conditions: for IC50: cisplatin resistant line; for RF, resistance factor: ratio of IC50 in A2780-cisR to A2780; for IC50 A2780-cisR: 120 h treatment
Description: as §4

[4] = system: A2780 cell line; assay: MTT cytotoxicity assay; type: cell-based; conditions: for IC50: cisplatin sensitive parent line; for IC50 A2780: 120 h treatment
Description: as §4

[5] = system: HCT-15 cell line; assay: MTT cytotoxicity assay; type: cell-based; conditions: 120 h treatment
Description: as §4

[6] = system: A549 cell line; assay: MTT cytotoxicity assay; type: cell-based; conditions: 120 h treatment
Description: A549, BxPC-3 and OVCAR-8 cells were grown in RPMI medium supplemented with 10% fetal bovine serum (Gibco), 1% L-glutamine, 100 U/ml penicillin, 100 ug/ml streptomycin and 0.13% w/w gentamycin. […] The cell lines were maintained at 37° C. under 5% CO2. All cell culture products were obtained from Biological Industries (Beit HaEmek, Israel). The drugs were dissolved in DMSO and were added to the appropriate medium. Drug concentrations were chosen in a range that would never expose cells to more than 0.5% DMSO i.e. for 50 μg/ml maximal concentration; 0.5 mg of OXA-PAL-ACT was dissolved in 50 μl DMSO and then added to 10 ml cell medium.
as §4

[7] = system: PC-3 cell line; assay: MTT cytotoxicity assay; conditions: for IC50 PC-3: 120 h treatment; for IC50: read-out: IC50 PC-3, 120 h incubation
Description: (§5) The in vitro experiments were performed in cell lines of lung cancer (A549), prostate cancer (DU145 and PC-3), pancreatic cancer (BxPC-3) and ovarian cancer (SKOV-3 and OVCAR-8). A549, BxPC-3 and OVCAR-8 cells were grown in RPMI medium supplemented with 10% fetal bovine serum (Gibco), 1% L-glutamine, 100 U/ml penicillin, 100 ug/ml streptomycin and 0.13% w/w gentamycin. PC-3 cells were cultured in DMEM plus 10% fetal bovine serum, 1% L-glutamine, 100 U/ml penicillin, 100 μg/ml streptomycin and 1% pyrovate. DU145 cells were grown in RPMI1640 medium supplemented with 10% fetal bovine serum, 100 U/ml penicillin, and 100 ug/ml streptomycin. SKOV-3 cells were cultured McCoy's 5A medium supplemented with 10% fetal bovine serum, 100 U/ml penicillin, and 100 ug/ml streptomycin. The cell lines were maintained at 37° C. under 5% CO2. […] The drugs were dissolved in DMSO and were added to the appropriate medium. Drug concentrations were chosen in a range that would never expose cells to more than 0.5% DMSO i.e. for 50 μg/ml maximal concentration; 0.5 mg of OXA-PAL-ACT was dissolved in 50 μl DMSO and then added to 10 ml cell medium.
as §4
(§6) The cells were treated continuously for 120 h.

[8] = system: PC-3 LUC cell line; assay: MTT cytotoxicity assay; conditions: for IC50 PC-3 LUC: 120 h treatment; for IC50: read-out: IC50 PC-3-luc, 120 h incubation
Description: as §4, §6

[9] = system: SKOV-3 cells; assay: DNA platination by ICP-MS; type: cell-based, human; conditions: 24 h exposure, 25 μg/ml
Description: (§1) Following incubation, the drug-containing medium was removed, and cells were rinsed twice with cold PBS, trypsinized and were centrifuged into a pellet (4400 rpm, 5 min). 500 μl of nitric acid was added to cell pellets, and overnight incubated at 70° C. The samples were prepared by dilution using 0.1% SDS and 1% nitric acid lysis solution, and analyzed for Pt content by ICP-MS. DNA was isolated and purified from cell lines with the DNeasy Blood and Tissue Kit (Qiagen).

[10] = system: HaCaT cell line; conditions: non-cancer human keratinocytes
Source text: (§2) HaCaT cell line monolayer representing human keratinocytes, RASM line monolayer representing Rat Aortic Smooth Muscle cells.

[11] = system: RASM (Rat Aortic Smooth Muscle cells); conditions: non-cancer Rat Aortic Smooth Muscle cells
Source text: as §2

[12] = system: SKOV-3 cell line; assay: MTT cytotoxicity assay; conditions: for IC50 SKOV-3: 120 h treatment; for IC50: read-out: IC50 SKOV-3, 120 h incubation
Description: as §5, §4, §6

[13] = system: SKOV-3 luc tumor; assay: Ovarian carcinoma mouse model, bioluminescent imaging; type: in vivo, SCID mice; conditions: from day 60; 15 mg/kg i.v. once a week, 4 treatments
Description: For induction of an ovarian carcinoma mouse model, 5-6 weeks-old severe combined immunodeficiency (SCID) mice, divided into 4 groups, were injected with 2×10^6 SKOV-3 luc cells directly into intraperitoneal cavity (i.p.). The cells were suspended in 100 μl PBS.
All treatments were given in an identical treatment regimen.

[14] = Log P determination, shake flask method; conditions: n-octanol and water
Description: The partition coefficient of the new Pt compounds was determined in n-octanol and water by shake flask method.

[15] = for body weight variation over time: OXA 5 mg/kg, OXA-PAL-ACT 15 mg/kg i.v. once a week; for maximum tolerated dose: i.v., solution
[16] = system: BxPC-3 cell line; assay: MTT cytotoxicity assay; conditions: for IC50 BXPC-3: 120 h treatment; for IC50: read-out: IC50 BxPC-3, 120 h incubation
Description: as §5, §4, §6

[17] = system: SKOV-3 and SKOV-3-luc cells; assay: Whole-cell Pt accumulation (cellular uptake) by ICP-MS; type: cell-based, human; conditions: 24 h exposure, 5, 15, 25 μg/ml
Description: as §1
Cellular accumulation of platinum is a key step in cellular platinum drug pharmacology.

[18] = system: BxPc-3-luc2 tumor; assay: Pancreatic carcinoma mouse model, bioluminescent imaging; type: in vivo, SCID-bg mice; conditions: i.v. once a week, 4 treatments
Source text: 5-6 weeks-old SCID mice were inoculated subcutaneously with 2×10^6 BxPC-3-luc cells.
Pancreatic tumors were induced by subcutaneous injection of the luciferase-transfected pancreas adenocarcinoma cells, BxPc-3-luc2, to SCID-bg mice. Tumor development and progression was validated by bioluminescent imaging. On the eighth day following tumor cells injection, a four-treatment cycle (intravenous route) was initiated (once a week).

[19] = system: OVCAR-8 cell line; assay: MTT cytotoxicity assay; conditions: for IC50 OVCAR-8: 120 h treatment; for IC50: read-out: IC50 OVCAR-8, 120 h incubation
Description: as §5, §4, §6

[20] = system: CT-26-luc cell line; assay: MTT antiproliferative assay; type: cell-based, murine; conditions: 120 h incubation
[21] = system: BxPc-3-luc2 cell line; assay: MTT antiproliferative assay; type: cell-based, human
Description: (§3) The antiproliferative activities of the novel compound (free and incorporated in NPs) and OXA were determined in HCT 116-luc2 (human colorectal cancer) and BxPc-3-luc2 (human pancreatic cancer) cell lines by the MTT assay.

[22] = system: HCT 116-luc2 cell line; assay: MTT antiproliferative assay; type: cell-based, human
Description: as §3

[23] = Reduction potentials by cyclic voltammetry; type: physicochemical; conditions: versus Ag/AgCl
[24] = system: HCT-116-luc2 tumor; assay: Colon cancer mouse model, bioluminescent imaging; type: in vivo, SCID-bg mice; conditions: 33 days from inoculation; 9 mg/kg OPA equivalent to 5 mg/kg OXA, i.v. every fourth day
Description: 5-6 weeks-old SCID mice were inoculated subcutaneously with 1×10^6 HCT-116-luc2 cells. 1 day following tumor inoculation, treatment was initiated. Treatment was administered once every fourth day by i.v. injection (tail), 4 treatments in total.
Results are presented as mean±SEM. […] In fact equivalent doses were […] since 9 mg/kg OPA is equivalent to 5 mg/kg OXA.

Compound	IC50 A375 [1]	IC50 A498 [2]	IC50 [3]	RF, resistance factor [3]	IC50 [4]	IC50 HCT-15 [5]	IC50 A549 [6]	IC50 PC-3 [7]	IC50 [7]	IC50 PC-3 LUC [8]	IC50 [8]	IC50 SKOV-3 [12]	IC50 [12]	Measured logP [14]	IC50 BXPC-3 [16]	IC50 [16]	IC50 OVCAR-8 [19]	IC50 [19]	IC50 [20]	Ep, reduction potential [23]	further results
N.N.[Cl][Pt][Cl] [Cisplatin, cisplatin, reference compound]	3.75 ± 1.77 µg/mL	17.53 µg/mL	14600 ± 1440 nM	15.53	940 ± 40 nM	11.32 µg/mL	8.35 µg/mL														
CCCCCCCCCCCCCCCC(=O)[O][Pt]12([O]C(C)=O)([NH]C3CCCCC3[NH]1)[O]C(=O)C(=O)[O]2 (centres unmarked) [OXA-PAL-ACT, oxaliplatin palmitate acetate]	0.16 µg/mL	0.20 µg/mL	340 ± 10 nM	0.93	360 ± 10 nM	0.43 µg/mL	0.34 µg/mL	0.25 ± 0.01 µg/mL	350 ± 10 nM	0.33 ± 0.08 µg/mL	460 ± 110 nM	0.39 ± 0.02 µg/mL	540 ± 30 nM	2.06	0.25 ± 0.01 µg/mL	350 ± 10 nM	0.33 ± 0.03 µg/mL	460 ± 30 nM	620 ± 240 nM	−0.54 ± 0.02 V	nucleus DNA platination [9]: higher DNA-platination; therapeutic ratio in HaCaT [10]: higher than 1.8; therapeutic ratio in RASM [11]: > 2; IC50 A2780-cisR [3]: 0.24 µg/mL; resistance factor ([3]; calculated from IC50 values of dose-response curves, A2780-cisR vs A2780 (FIG. 10)): 1; IC50 A2780 [4]: 0.26 µg/mL; tumor growth (bioluminescence) efficacy [13]: more efficient that OXA; observed Log P ([14]; n=5): 2.76±0.14; body weight variation over time [15]: did not reduce the animal weight; maximum tolerated dose [15]: 15 mg/kg; cellular accumulation of platinum [17]: substantially higher compared to that of oxaliplatin; pancreatic tumor growth inhibition [18]: significantly more efficient in pancreatic tumor growth inhibition compared to OXA and the control; IC50 [21]: 310 ± 90 nM; IC50 [22]: 370 ± 20 nM; tumor growth inhibition [24]: no significant efficacy difference
CCCCCCCCCCCCCCCC(=O)[O][Pt]1([O]C(=O)CCC(=O)O)[O]C(=O)C(=O)[O]1.NC1CCCCC1N [OXA-PAL-SUCC]	0.19 µg/mL	0.24 µg/mL	1900 ± 200 nM	4.13	460 ± 10 nM	0.35 µg/mL	0.45 µg/mL	0.35 ± 0.01 µg/mL	450 ± 10 nM	0.78 ± 0.88 µg/mL	1010 ± 1130 nM	20.67 ± 15.88 µg/mL	26800 ± 20600 nM	2.07	1.23 ± 1.18 µg/mL	1590 ± 1520 nM	2.83 ± 0.38 µg/mL	3670 ± 490 nM	4430 ± 930 nM	−0.60 ± 0.01 V	
CCCCCCCCCCCCCCCC(=O)[O][Pt]1([O]C(=O)CCCCCCCCCCCCCCC)[O]C(=O)C(=O)[O]1.NC1CCCCC1N [OXADP, oxaliplatin dipalmitate]			> 55000 nM	>7.3	7500 ± 500 nM			2.20 ± 1.21 µg/mL	2420 ± 1330 nM	21.35 ± 19.30 µg/mL	23500 ± 21200 nM	N.D* (N.D—Not Determined (The IC50 value is higher than maximal tested concentration-50 μg/ml))	> 55000 nM	3.49	24.07 ± 12.96 µg/mL	26500 ± 14300 nM	16 ± 3.12 µg/mL	17600 ± 3430 nM	> 55000 nM	−0.53 ± 0.02 V	
O=C1[O][Pt]2([NH][C@@H]3CCCC[C@H]3[NH]2)[O]C1=O [Oxaliplatin, reference compound]			4100 ± 250 nM		780 ± 20 nM			3.63 ± 0.15 µg/mL	9160 ± 370 nM	11 ± 3.60 µg/mL	27700 ± 9050 nM	32.5 ± 3.54 µg/mL	58300 ± 6340 nM		1.35 ± 0.35 µg/mL	3380 ± 870 nM	3.75 ± 1.77 µg/mL	9440 ± 4440 nM	5600 ± 600 nM		IC50 A2780-cisR [3]: 1.63 ± 0.11 µg/mL; IC50 A2780 [4]: 0.31 µg/mL; body weight variation over time [15]: marked weight reduction; maximum tolerated dose [15]: 5 mg/kg; pancreatic tumor growth inhibition [18]: did not show any efficacy; IC50 [21]: 62700 ± 2520 nM; IC50 [22]: 2300 ± 1080 nM
